Experimental data reported in publication PMC4057607 (Journal of immunology (Baltimore, Md. : 1950), 2013).
pKd: −log10 of the molar value.

Target: soluble HLA-A*02:01 molecules (Homo sapiens, UniProt P04439, D140Y/D185E/D98H/E176V/E277Q/G131W/G231S/I119V/I121R/I166T/I218V/L300P/L318F/N151K/N90K/P208A/P217A/Q86G/Q94H/R138H/R169H/T345S)
Assay: Binding with soluble HLA-A*02:01 molecules

## CSCC[C@H](NC(=O)[C@@H](N)[C@@H](C)O)C(=O)N[C@@H](CC(C)C)C(=O)N[C@@H](CCC(=O)O)C(=O)N[C@@H](CC(=O)O)C(=O)N[C@@H](Cc1c[nH]cn1)C(=O)N[C@@H](CCC(=O)O)C(=O)N[C@@H](Cc1ccccc1)C(=O)N[C@H](C(=O)O)C(C)C [gB675–683]
  pKd: ~7.02
